According to paper PMC7796031, “Studies of Coumarin Derivatives for Constitutive Androstane Receptor (CAR) Activation” (Molecules, 2020):

What follows are molecules tested against T1, Constitutive androstane receptor (CAR) (Homo sapiens, UniProt Q14994) (assay: In vitro CAR activation screening assay (UGT1A1 promoter gtPBREM-pGL4 luciferase reporter in Hep3B-gtPBREM cells)). Conditions: Table 1; 10 μM; (luminescence of compound − luminescence of scoparone)/luminescence of scoparone × 100%; read-out: CAR Activation Fold.
T1 construct: The pGL4-gtPBREM plasmid was transfected into Hep3B cells; endogenous in cells
T1 sequence (Q14994 1-352): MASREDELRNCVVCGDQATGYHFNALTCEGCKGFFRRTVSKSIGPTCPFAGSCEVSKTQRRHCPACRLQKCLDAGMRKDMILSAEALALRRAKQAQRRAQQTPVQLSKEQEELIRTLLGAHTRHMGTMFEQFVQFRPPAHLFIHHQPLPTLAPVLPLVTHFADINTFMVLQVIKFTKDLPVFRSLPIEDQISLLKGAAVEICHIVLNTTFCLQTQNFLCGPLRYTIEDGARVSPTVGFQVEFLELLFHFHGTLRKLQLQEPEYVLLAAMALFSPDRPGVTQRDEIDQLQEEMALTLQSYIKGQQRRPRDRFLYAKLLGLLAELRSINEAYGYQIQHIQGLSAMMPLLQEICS
Assay type: cell-based
From the text: Until now, there is no commercially available high throughput screening method for CAR activation. Traditionally, CAR activation can be detected in western blots by its downstream signals such as UGT1A1, MRP2 or CYP2B6. […] However, this method was slow and pricy. In order to rapidly screen all the compounds for CAR activation at less cost, an in vitro CAR activation screening assay was developed: DNA was extracted from Hep3B cells and UGT1A1 promoter was obtained using PCR amplification. Ligation between UGT1A1 promoter and pGL4 vector was performed and the plasmid was amplified via E. coli replication. The desired plasmid was extracted from E. coli and transfected into Hep3B. The desired colony bearing UGT1A1 promoter-pGL4 plasmid was selected by neomycin. CAR activation was measured by adding tested compounds to Hep3B for several hours and luminescence was measured. Higher activation will get higher luminescence readout. This assay system was validated with two different CAR agonists: CITCO (direct agonist) and scoparone (an indirect agonist). […] Different concentration of scoparone at 1, 5, 10 and 20 μM had been tested either for luciferase assay or downstream UGT1A1 and MRP2 expression (data not shown) and 10 μM was selected to be the best condition for the following work.
After successfully establishing the in vitro assay, all of the coumarin compounds were subjected to the screening (at 10 μM) and their SAR was discussed. Although the reporter system can successfully identify CAR-activating compounds under 8 h and display better efficiency and sensitivity compared with western blots, it only presented a medium luciferase response. According to previous studies, CITCO was reported to only moderately enhance human CAR (less than 2-fold), compared with the enhance provided by TCPOBOP for murine CAR (5- to 10-fold) in luciferase reporter assays. […] Another possibility for the medium response in our reporter system might be the contribution of the whole gtPBREM element which might include response-suppressive elements that was used and the single nucleotide variation of DR3 element which was reported to slightly reduce the original UGT1A1 activity.
The genomic DNA was isolated from Hep3B cells using Wizard® Genomic DNA Purification Kit (Promega, Fitchburg, WI, USA). The promoter region of UGT1A1 gene, gtPBREM element, was amplified by AccuPrime^TM Taq DNA Polymerase High Fidelity Kit (Invitrogen, MA, USA). The sequence of the amplified element was confirmed by DNA sequencing company and cloned into pGL4 luciferase reporter vector. The pGL4-gtPBREM plasmid was transfected into Hep3B cells. The stable pGL4-gtPBREM transfected Hep3B cells, Hep3B-gtPBREM cells, were established after G418 selection. The luciferase activity represented of CAR activation ability was measured using individual established clone. Further, CAR-shRNA was obtained from the Genomic Research Center and transfected into Hep3B-gtPBREM cells. The transient transfected shCAR-Hep3B-gtPBREM cells were used for further luciferase assays.
The Hep3B-gtPBREM cells and shCAR-Hep3B-gtPBREM cells (1.5 × 10^5 cells/well) were seeded into 12-well plates for overnight then pre-determined concentration compounds were added for desired time. After treatment, transfected cells were washed twice in PBS, lysated with 1× passive lysis buffer and luciferase intensity of equal amount of cell lysate was measured by a Synergy HT Multi-Mode Microplate Reader (BioTek, Winooski, VT, USA).
`O=c1ccc2c(O)cccc2o1` [Compound 1, 5-hydroxycoumarin] showed an activation at 10 µM of 6%.
Work on `COc1cccc2oc(=O)ccc12` [Compound 2, 5-methoxycoumarin] yielded an activation at 10 µM of -20%.
In the case of `CC(=O)Oc1cccc2oc(=O)ccc12` [Compound 3], the activation at 10 µM is reported as -32%.
`C=CCOc1cccc2oc(=O)ccc12` [Compound 4] was tested, and the activation at 10 µM was -15%.
For `CCCCOc1cccc2oc(=O)ccc12` [Compound 5], the activation at 10 µM was -9%.
`CC(C)=CCCC(C)=CCOc1cccc2oc(=O)ccc12` [Compound 7] showed an activation at 10 µM of -18%.
For `CC(C)=CCCC(C)=CCCC(C)=CCOc1cccc2oc(=O)ccc12` [Compound 8], the activation at 10 µM was 2%.
For `O=c1ccc2cc(O)ccc2o1` [Compound 9, 6-hydroxycoumarin], the activation at 10 µM was -8%.
In the case of `COc1ccc2oc(=O)ccc2c1` [Compound 10, 6-methoxycoumarin], the activation at 10 µM is reported as 32%.
In the case of `CC(=O)Oc1ccc2oc(=O)ccc2c1` [Compound 12], the activation at 10 µM is reported as -22%.
`C=CCOc1ccc2oc(=O)ccc2c1` [Compound 13] showed an activation at 10 µM of -17%.
In the case of `CCCCOc1ccc2oc(=O)ccc2c1` [Compound 14], the activation at 10 µM is reported as 37%.
With `CC(C)=CCOc1ccc2oc(=O)ccc2c1` [Compound 15] the activation at 10 µM was 22%.
`CC(C)=CCCC(C)=CCOc1ccc2oc(=O)ccc2c1` [Compound 16] was tested, and the activation at 10 µM was 18%.
In the case of `CC(C)=CCCC(C)=CCCC(C)=CCOc1ccc2oc(=O)ccc2c1` [Compound 17], the activation at 10 µM is reported as -41%.
`O=c1ccc2ccc(O)cc2o1` [Compound 18, umbelliferone] showed an activation at 10 µM of -1%.
Work on `COc1ccc2ccc(=O)oc2c1` [Compound 19, 7-methoxycoumarin] yielded an activation at 10 µM of -9%.
Molecule `CC(=O)Oc1ccc2ccc(=O)oc2c1` [Compound 21] has an activation at 10 µM of -37%.
With `CC(C)=CCOc1ccc2ccc(=O)oc2c1` [Compound 24] the activation at 10 µM was -35%.
Molecule `CC(C)=CCCC(C)=CCOc1ccc2ccc(=O)oc2c1` [Compound 25, aurapten] has an activation at 10 µM of -13%.
`CC(C)=CCCC(C)=CCCC(C)=CCOc1ccc2ccc(=O)oc2c1` [Compound 26] gave an activation at 10 µM of -29%.
`O=c1ccc2cccc(O)c2o1` [Compound 27, 8-hydroxycoumarin] was tested, and the activation at 10 µM was 40%.
`COc1cccc2ccc(=O)oc12` [Compound 28, 8-methoxycoumarin] showed an activation at 10 µM of -8%.
`CC(=O)Oc1cccc2ccc(=O)oc12` [Compound 29] showed an activation at 10 µM of -33%.
`C=CCOc1cccc2ccc(=O)oc12` [Compound 30] showed an activation at 10 µM of -34%.
For `CCCCOc1cccc2ccc(=O)oc12` [Compound 31, 8-n-Butoxycoumarin], the activation at 10 µM was 4%.
Molecule `CC(C)=CCOc1cccc2ccc(=O)oc12` [Compound 32] has an activation at 10 µM of 2%.
`CC(C)=CCCC(C)=CCOc1cccc2ccc(=O)oc12` [Compound 33] was tested, and the activation at 10 µM was -30%.
In the case of `CC(C)=CCCC(C)=CCCC(C)=CCOc1cccc2ccc(=O)oc12` [Compound 34], the activation at 10 µM is reported as 19%.

Same assay, conditions: Table 2; 10 μM; (luminescence of compound − luminescence of scoparone)/luminescence of scoparone × 100%; read-out: CAR Activation Fold
`O=c1ccc2cc(O)c(O)cc2o1` [Compound 35, esculetin] was tested, and the activation at 10 µM was -22%.
`Cc1cc2ccc(=O)oc2cc1C` [Compound 36] was tested, and the activation at 10 µM was -17%.
`COc1cc2oc(=O)ccc2cc1O` [Compound 37, isoscopoletin] gave an activation at 10 µM of -10%.
`COc1cc2ccc(=O)oc2cc1O` [Compound 38, scopoletin] was tested, and the activation at 10 µM was -1%.
`O=c1ccc2cc3c(cc2o1)OCO3` [Compound 40, ayapin] gave an activation at 10 µM of 7%.
`O=c1ccc2cc3c(cc2o1)OCCO3` [Compound 41] gave an activation at 10 µM of -50%.
With `CCOc1cc2ccc(=O)oc2cc1OCC` [Compound 42] the activation at 10 µM was -26%.
Molecule `CC(=O)Oc1cc2ccc(=O)oc2cc1OC(C)=O` [Compound 43] has an activation at 10 µM of -11%.
`CCCOc1cc2ccc(=O)oc2cc1OCCC` [Compound 45] showed an activation at 10 µM of -37%.
`CC(C)CCOc1cc2ccc(=O)oc2cc1OCCC(C)C` [Compound 48, 6,7-Di-isopentoxycoumarin] was tested, and the activation at 10 µM was -61%.

Same assay, conditions: read-out: CAR Activation Fold
With `C=CCOc1ccc2ccc(=O)oc2c1` [Compound 22] the activation at 10 µM was -46%.
`CCCCOc1ccc2ccc(=O)oc2c1` [Compound 23] gave an activation at 10 µM of -51%.
